Source: patent US20070128217A1 (priority 2003, published 2007)

What was measured:
[1] = test system: antibodies in sera from SARS patients (sera 1a, 1b, 2, 6, 37, 62, London, SARS-yellow, SARS-green); format: binding, human; set-up: Binding of serum 6 to linear peptides of protein X1 of SARS-CoV Urbani / Binding of serum 37 to linear peptides of protein X1 of SARS-CoV Urbani / Binding of serum 6 to looped/cyclic peptide (PEPSCAN-ELISA) / Binding of serum 37 to looped/cyclic peptide (PEPSCAN-ELISA) / Binding of serum 37 to looped/cyclic peptides of protein X1 of SARS-CoV Urbani / Binding of serum 6 to linear peptides of protein X2 / Binding of serum 37 to linear peptides of protein X2 / Binding of serum 37 to looped/cyclic peptides of protein X2 of SARS-CoV Urbani / Binding of serum 6 to linear peptides of protein M of SARS-CoV Urbani / Binding of serum 37 to linear peptides of protein M of SARS-CoV Urbani / Binding of serum 6 to looped/cyclic peptides of protein M of SARS-CoV Urbani / Binding of serum 37 to looped/cyclic peptides of protein M of SARS-CoV Urbani / Binding of serum 6 to linear peptides of protein X3 of SARS-CoV Urbani / Binding of serum 37 to linear peptides of protein X3 of SARS-CoV Urbani / Binding of serum 37 to looped/cyclic peptides of protein X3 of SARS-CoV Urbani / Binding of serum 6 to linear peptides of protein X4 of SARS-CoV Urbani / Binding of serum 37 to linear peptides of protein X4 of SARS-CoV Urbani / Binding of serum 37 to looped/cyclic peptides of protein X4 of SARS-CoV Urbani / Binding of serum 6 to linear peptides of protein X5 of SARS-CoV Urbani / Binding of serum 37 to linear peptides of protein X5 of SARS-CoV Urbani / Binding of serum 37 to looped/cyclic peptides of protein X5 of SARS-CoV Urbani / Binding of serum 6 to linear peptides of protein N of SARS-CoV Urbani / Binding of serum 37 to linear peptides of protein N of SARS-CoV Urbani / Binding of serum 6 to linear peptide (PEPSCAN-ELISA) / Binding of serum 1a to looped/cyclic peptides of protein N of SARS-CoV Urbani / Binding of serum 1b to looped/cyclic peptides of protein N of SARS-CoV Urbani / Binding of serum 2 to looped/cyclic peptides of protein N of SARS-CoV Urbani / Binding of serum 6 to looped/cyclic peptides of protein N of SARS-CoV Urbani / Binding of serum 37 to looped/cyclic peptides of protein N of SARS-CoV Urbani / Binding of serum 62 to looped/cyclic peptides of protein N of SARS-CoV Urbani / Binding of serum London to looped/cyclic peptides of protein N of SARS-CoV Urbani / Binding of serum SARS-green to looped/cyclic peptides of protein N of SARS-CoV Urbani: unit not given here
[2] = test system: control sera (pooled serum of ten healthy LUMC hospital workers; commercial negative donor pooled serum from the Dutch bloodbank); format: binding, human; set-up: Binding of Control serum LUMC to linear peptides / Binding of Control serum Blood-bank to linear peptides / Binding of Control serum LUMC to looped peptides / Binding of Control Serum Blood-Bank to Looped peptides / Binding of Control serum LUMC to linear peptides of the protein M of SARS-CoV Urbani / Binding of Control serum Blood-bank to linear peptides of the protein M of SARS-CoV Urbani / Binding of Control serum LUMC to looped peptides of the protein M of SARS-CoV Urbani / Binding of Control Serum Blood-Bank to Looped peptides of the protein M of SARS-CoV Urbani: unit not given here
[3] = test system: rabbit serum obtained by immunizing a rabbit with the SARS-CoV strain Frankfurt 1; format: binding; set-up: Binding of a rabbit serum to linear peptides / Binding of a rabbit serum to looped peptides / Rabbit serum linear peptides / Rabbit serum looped peptides / Binding of a rabbit serum to linear peptides of protein N of SARS-CoV Urbani (Rabbit serum linear peptides) / Binding of a rabbit serum to looped/cyclic peptides of protein N of SARS-CoV Urbani (Rabbit serum looped peptides): unit not given here

STNLCTHSFRKKQVR
Binding of serum 1a to looped/cyclic peptides of protein X2 of SARS-CoV Urbani [1]: 0.5 | Binding of serum 1b to looped/cyclic peptides of protein X2 of SARS-CoV Urbani [1]: 0.3 | Binding of serum 2 to looped/cyclic peptides of protein X2 of SARS-CoV Urbani [1]: 0.5 | Binding of serum 6 to looped/cyclic peptides of protein X2 of SARS-CoV Urbani [1]: 0.6 | Binding of serum 37 to looped/cyclic peptides of protein X2 of SARS-CoV Urbani [1]: 0.5 | Binding of serum 62 to looped/cyclic peptides of protein X2 of SARS-CoV Urbani [1]: 0.5 | Binding of serum London to looped/cyclic peptides of protein X2 of SARS-CoV Urbani [1]: 0.2 | Binding of serum SARS-green to looped/cyclic peptides of protein X2 of SARS-CoV Urbani [1]: 0.2 | Binding of serum SARS-yellow to looped/cyclic peptides of protein X2 of SARS-CoV Urbani [1]: 0.5 | Recognition of the peptide by sera of SARS-CoV infected individuals, and form (linear, looped/cyclic) in which it is recognized [1]: recognized in linear form | Binding of Control Serum Blood-Bank to Looped peptides [2]: 0.5 | Binding of Control serum Blood-bank to linear peptides [2]: 0.9 | Binding of Control serum LUMC to linear peptides [2]: 0.8 | Binding of Control serum LUMC to looped peptides [2]: 0.8 | Binding of a rabbit serum to linear peptides [3]: 0.7 | Binding of a rabbit serum to looped peptides [3]: 0.2

STQITTDTGIENATF
Binding of serum 1a to linear peptides of protein X1 of SARS-CoV Urbani [1]: 0.5 | Binding of serum 1a to looped/cyclic peptides of protein X1 of SARS-CoV Urbani [1]: 0.6 | Binding of serum 1b to linear peptides of protein X1 of SARS-CoV Urbani [1]: 0.4 | Binding of serum 1b to looped/cyclic peptides of protein X1 of SARS-CoV Urbani [1]: 0.4 | Binding of serum 2 to linear peptides of protein X1 of SARS-CoV Urbani [1]: 0.4 | Binding of serum 2 to looped/cyclic peptides of protein X1 of SARS-CoV Urbani [1]: 0.3 | Binding of serum 6 to linear peptides of protein X1 of SARS-CoV Urbani [1]: 0.5 | Binding of serum 6 to looped/cyclic peptides of protein X1 of SARS-CoV Urbani [1]: 0.3 | Binding of serum 37 to linear peptides of protein X1 of SARS-CoV Urbani [1]: 0.6 | Binding of serum 37 to looped/cyclic peptides of protein X1 of SARS-CoV Urbani [1]: 0.6 | Binding of serum 62 to linear peptides of protein X1 of SARS-CoV Urbani [1]: 0.4 | Binding of serum 62 to looped/cyclic peptides of protein X1 of SARS-CoV Urbani [1]: 0.6 | Binding of serum London to linear peptides of protein X1 of SARS-CoV Urbani [1]: 0.2 | Binding of serum London to looped/cyclic peptides of protein X1 of SARS-CoV Urbani [1]: 0.2 | Binding of serum SARS-green to linear peptides of protein X1 of SARS-CoV Urbani [1]: 0.3 | Binding of serum SARS-green to looped/cyclic peptides of protein X1 of SARS-CoV Urbani [1]: 0.4 | Binding of serum SARS-yellow to linear peptides of protein X1 of SARS-CoV Urbani [1]: 0.2 | Binding of serum SARS-yellow to looped/cyclic peptides of protein X1 of SARS-CoV Urbani [1]: 0.4 | Binding of Control Serum Blood-Bank to Looped peptides [2]: 0.5 | Binding of Control serum Blood-bank to linear peptides [2]: 0.5 | Binding of Control serum LUMC to linear peptides [2]: 0.6 | Binding of Control serum LUMC to looped peptides [2]: 0.6 | Binding of a rabbit serum to linear peptides [3]: 0.1 | Binding of a rabbit serum to looped peptides [3]: 0.7

SYFVASFRLFARTRS
Binding of serum 1a to linear peptides of protein M of SARS-CoV Urbani [1]: 0.7 | Binding of serum 1b to linear peptides of protein M of SARS-CoV Urbani [1]: 0.6 | Binding of serum 2 to linear peptides of protein M of SARS-CoV Urbani [1]: 0.5 | Binding of serum 6 to linear peptides of protein M of SARS-CoV Urbani [1]: 0.5 | Binding of serum 37 to linear peptides of protein M of SARS-CoV Urbani [1]: 0.4 | Binding of serum 62 to linear peptides of protein M of SARS-CoV Urbani [1]: 0.4 | Binding of serum London to linear peptides of protein M of SARS-CoV Urbani [1]: 0.3 | Binding of serum SARS-green to linear peptides of protein M of SARS-CoV Urbani [1]: 0.4 | Binding of serum SARS-yellow to linear peptides of protein M of SARS-CoV Urbani [1]: 0.1 | Recognition of the peptide by sera of SARS-CoV infected individuals, and form (linear, looped/cyclic) in which it is recognized [1]: recognized in looped/cyclic form | Binding of Control Serum Blood-Bank to Looped peptides of the protein M of SARS-CoV Urbani [2]: 1.0 | Binding of Control serum Blood-bank to linear peptides of the protein M of SARS-CoV Urbani [2]: 0.6 | Binding of Control serum LUMC to linear peptides of the protein M of SARS-CoV Urbani [2]: 0.5 | Binding of Control serum LUMC to looped peptides of the protein M of SARS-CoV Urbani [2]: 0.9 | Rabbit serum linear peptides [3]: 0.2 | Rabbit serum looped peptides [3]: 0.4

TAAFRDVLVVLNKRT
Binding of serum 1a to linear peptides of protein X5 of SARS-CoV Urbani [1]: 0.5 | Binding of serum 1a to looped/cyclic peptides of protein X5 of SARS-CoV Urbani [1]: 0.7 | Binding of serum 1b to linear peptides of protein X5 of SARS-CoV Urbani [1]: 0.6 | Binding of serum 1b to looped/cyclic peptides of protein X5 of SARS-CoV Urbani [1]: 0.6 | Binding of serum 2 to linear peptides of protein X5 of SARS-CoV Urbani [1]: 0.6 | Binding of serum 2 to looped/cyclic peptides of protein X5 of SARS-CoV Urbani [1]: 0.7 | Binding of serum 6 to linear peptides of protein X5 of SARS-CoV Urbani [1]: 0.6 | Binding of serum 6 to looped/cyclic peptides of protein X5 of SARS-CoV Urbani [1]: 0.9 | Binding of serum 37 to linear peptides of protein X5 of SARS-CoV Urbani [1]: 0.5 | Binding of serum 37 to looped/cyclic peptides of protein X5 of SARS-CoV Urbani [1]: 0.6 | Binding of serum 62 to linear peptides of protein X5 of SARS-CoV Urbani [1]: 0.5 | Binding of serum 62 to looped/cyclic peptides of protein X5 of SARS-CoV Urbani [1]: 0.6 | Binding of serum London to linear peptides of protein X5 of SARS-CoV Urbani [1]: 0.5 | Binding of serum London to looped/cyclic peptides of protein X5 of SARS-CoV Urbani [1]: 1.1 | Binding of serum SARS-green to linear peptides of protein X5 of SARS-CoV Urbani [1]: 0.2 | Binding of serum SARS-green to looped/cyclic peptides of protein X5 of SARS-CoV Urbani [1]: 0.5 | Binding of serum SARS-yellow to linear peptides of protein X5 of SARS-CoV Urbani [1]: 0.7 | Binding of serum SARS-yellow to looped/cyclic peptides of protein X5 of SARS-CoV Urbani [1]: 0.5 | Binding of Control Serum Blood-Bank to Looped peptides [2]: 0.8 | Binding of Control serum Blood-bank to linear peptides [2]: 0.7 | Binding of Control serum LUMC to linear peptides [2]: 0.8 | Binding of Control serum LUMC to looped peptides [2]: 0.6 | Rabbit serum linear peptides [3]: 0.3 | Rabbit serum looped peptides [3]: 0.4

TAFQHQNSKKTTKLV
Binding of serum 1a to linear peptides of protein X2 [1]: 0.7 | Binding of serum 1a to looped/cyclic peptides of protein X2 of SARS-CoV Urbani [1]: 0.3 | Binding of serum 1b to linear peptides of protein X2 [1]: 0.5 | Binding of serum 1b to looped/cyclic peptides of protein X2 of SARS-CoV Urbani [1]: 0.3 | Binding of serum 2 to linear peptides of protein X2 [1]: 0.5 | Binding of serum 2 to looped/cyclic peptides of protein X2 of SARS-CoV Urbani [1]: 0.2 | Binding of serum 6 to linear peptides of protein X2 [1]: 0.7 | Binding of serum 6 to looped/cyclic peptides of protein X2 of SARS-CoV Urbani [1]: 0.3 | Binding of serum 37 to linear peptides of protein X2 [1]: 0.7 | Binding of serum 37 to looped/cyclic peptides of protein X2 of SARS-CoV Urbani [1]: 0.2 | Binding of serum 62 to linear peptides of protein X2 [1]: 0.4 | Binding of serum 62 to looped/cyclic peptides of protein X2 of SARS-CoV Urbani [1]: 0.4 | Binding of serum London to linear peptides of protein X2 [1]: 0.4 | Binding of serum London to looped/cyclic peptides of protein X2 of SARS-CoV Urbani [1]: 0.2 | Binding of serum SARS-green to linear peptides of protein X2 [1]: 0.1 | Binding of serum SARS-green to looped/cyclic peptides of protein X2 of SARS-CoV Urbani [1]: 0.1 | Binding of serum SARS-yellow to linear peptides of protein X2 [1]: 0.8 | Binding of serum SARS-yellow to looped/cyclic peptides of protein X2 of SARS-CoV Urbani [1]: 0.3 | Binding of Control Serum Blood-Bank to Looped peptides [2]: 0.4 | Binding of Control serum Blood-bank to linear peptides [2]: 0.6 | Binding of Control serum LUMC to linear peptides [2]: 0.9 | Binding of Control serum LUMC to looped peptides [2]: 0.4 | Recognition of the peptide by the rabbit serum [3]: recognized
